Values of other authors in patent US20090162444A1, “RALOXIFENE COMPOSITION” (priority 2007, published 2009).
Counter-ions that a name gives are not always drawn.

Columns and labels:
[1] = not given; remark: listed apart in the source
[2] = oral administration

| solubility in water [µg/mL] | solubility in gastric and intestinal fluid [1] | absolute bioavailability [2] | Compound |
| --- | --- | --- | --- |
| 627 | very slightly soluble |  | O=C(c1ccc(OCCN2CCCCC2)cc1)c1c(-c2ccc(O)cc2)sc2cc(O)ccc12 [Raloxifene hydrochloride, raloxifene hydrochloride] |
|  |  | about 2% | O=C(c1ccc(OCCN2CCCCC2)cc1)c1c(-c2ccc(O)cc2)sc2cc(O)ccc12 [Raloxifene, (6-hydroxy-2-(4-hydroxy-phenyl)benzo[b]thien-3-yl)-(4-(2-(1-piperidinyl)ethoxy)phenyl)methanone] |
